Patent US20180071280A1, “MODULATORS OF CELL DEATH PROCESSES” (URIFER LTD., priority 2015, published 2018)
Entries after “also recorded” stand apart in the source; their conditions may differ. Structures can show the parent of a compound that is named as a salt. Where two headings read alike, the source gives them in different places.

Tests used:
[1] = target: CSF1R (Colony stimulating factor 1 receptor-FMS) (Homo sapiens, UniProt P07333); assay: Kinase panel assay, CSF1R; assay type: biochemical; conditions: above threshold
Procedure: (§1) Kinase panel assays were performed using the FRET-based Z′-LYTE, Lantha Screen and Adapta enzymatic kinase assay systems (Life Technologies, Carlsbad, Calif.), which were carried out using the SelectScreen Kinase Profiling Service (Life Technologies). The standard reaction contained 2 μM peptide substrate, ATP at the optimal assay concentration, 50 mM HEPES (pH 7.5), 0.01% Brij-35, 10 mM MgCl2, 1 mM EGTA, and the tested kinase. Each kinase was checked for its activity in duplicate data points (n=2) and was assayed following the detailed procedures outlined in the SelectScreen service. Percent inhibition or ATP displacement (For Lantha screen) represent a ratio of phosphorylated/ATP bound product formed in the presence of the compound compared with phosphorylated/ATP bound product formed in reactions containing 1% DMSO.
(§2) Kinome technique was used for monitoring phosphorylation events and phosphorylation targets of 0260-Fer interaction, using peptide arrays for human targets and phosphorylation-specific antibodies. Construction of peptide arrays relied on information from phosphorylation databases. The following proteins were determined as significant above the threshold of 40% kinase activity inhibition or ATP displacement to the Kinase domain site.

MAPK8 (JNK1) = MAPK8 (JNK1) (Homo sapiens, UniProt P45983); assay: Kinase panel assay, MAPK8; assay type: biochemical; conditions: above threshold
Procedure: as §1, §2

[2] = test system: normal human fibroblasts (Hfb); assay: MultiTox-Fluor cytotoxicity assay in normal human fibroblasts; assay type: cell-based
Procedure: (§3) Cell lines (HCT116, ht29, Rko, Hep3B, SW48, SW620, MDA-MB-231, PANC-1, su.86.86, Hfb) were obtained from the American Type Culture Collection (ATCC). Cell type authentication was carried out by microscope and DNA profiles using short tandem repeat analysis. Cells were grown in Minimum Essential Medium (MEM) containing 10% heat-inactivated Fetal Bovine Serum (FBS) or in Dulbecco's Modified Eagle's Medium (DMEM) containing 10% FBS, where specified, at 37° C. with 5% CO2. In general, the in-vitro experiments were carried out with 2. μM 0260 added into the growth medium. Dose response experiments included increasing 0260 concentrations. Cell death levels were determined using the MultiTox-Fluor Multiplex Cytotoxicity Assay (G9201, Promega, USA). In brief, 10,000 cells were seeded in black bottom 96 wells plate and were allowed to attach to the plate bottom for 16 h before the administration of various 0260 concentration in each well. Cell death levels were determined according to the manufacturer's protocol.
(§4) Cells death level was determined using the MultiTox-Fluor Multiplex Cytotoxicity Assay (G9201, Promega, USA) according to the manufacturer's protocol.

HKII = assay: Glycolysis enzyme levels in CC cells (WB, ICC); assay type: cell-based, human
Procedure: (§5) WB analyses were carried out as previously described before. In brief, cells were lysed in RIPA buffer mixed with protease inhibitors and separated on SDS-PAGE gel, transferred to PVDF membrane treated with 5% skim milk to exclude non-specific background and incubated with a primary antibody over-night. The membrane was incubated for 1 h with a secondary antibody conjugated to Horseradish Peroxidase (HRP). The protein-antibody complex was visualized using the SuperSignal West Pico Chemiluminescent Substrate (Thermo scientific, USA).
Cells were fixed with 4% paraformaldehyde (30 min) and incubated with Permeabilization Solution containing 0.1% Triton X-100 (Sigma-Aldrich, Israel) in PBS at room temperature for 1 h. Nonspecific binding was blocked with PBS containing 10% fetal bovine serum for 1 h at room temperature. Cells were incubated with specific antibodies diluted 1:100 overnight at 4° C. […] Bound primary antibodies were detected by Alexa Fluor® 488 goat anti-mouse IgG antibody or Alexa Fluor® 594 goat anti-rabbit IgG antibody (Molecular Probes, Invitrogen, U.K.). […] Nonspecific staining, as determined by binding to the secondary antibody only, was negligible. The immunostained slides were examined under the fluorescence microscope AxioimagerZ1 (Zeiss, Germany) or confocal fluorescence microscope (Olympus-FV1000).

[3] = test system: AMPK-mTOR signaling pathway; assay: WB of AMPK-mTOR signaling pathway phosphorylation in CC cells; assay type: cell-based, human
Procedure: as §5

MDA cells = assay: Autophagy in MDA cells (LC3 immuno-staining); assay type: cell-based, human; conditions: 2 μM
Procedure: (§6) Cells were fixed with 4% paraformaldehyde (30 min) and incubated with Permeabilization Solution containing 0.1% Triton X-100 (Sigma-Aldrich, Israel) in PBS at room temperature for 1 h. Nonspecific binding was blocked with PBS containing 10% fetal bovine serum for 1 h at room temperature. Cells were incubated with specific antibodies diluted 1:100 overnight at 4° C. Cells were washed (5 min) in PBS containing 0.2% Tween-20 (Sigma-Aldrich, Israel) to remove non-specific binding. Bound primary antibodies were detected by Alexa Fluor® 488 goat anti-mouse IgG antibody or Alexa Fluor® 594 goat anti-rabbit IgG antibody (Molecular Probes, Invitrogen, U.K.). Nuclei were visualized by incubation with Hoechst 33342 solution for 10 min (1:500). Nonspecific staining, as determined by binding to the secondary antibody only, was negligible. The immunostained slides were examined under the fluorescence microscope AxioimagerZ1 (Zeiss, Germany) or confocal fluorescence microscope (Olympus-FV1000).

[4] = test system: pancreatic cancer cells (PANC-1); assay: MultiTox-Fluor cytotoxicity assay in PANC-1 cells; assay type: cell-based, human; conditions: PANC-1, 24-72 h
Procedure: as §3, §4

CC cells = assay: Autophagy in CC cells (TEM, LC3 immuno-staining, WB); assay type: cell-based, human
Procedure: as §5, §6
Cells were grown in MEM or DMEM, washed twice with PBS and fixed for 5 minutes in Karnovsky fixative (2.5% glutaraldehyde, 2.5% paraformaldehyde in cacodylate buffer pH 7.4) on the tissue culture plate. Cells were then harvested, and transferred to 1.5 ml tube for further 1 h fixation at room temperature. The cells were then stored O.N at 4C° after which the samples were washed in 0.1 M cacodylate buffer and post-fixed with 1% OsO4 in 0.1 M sodium cacodylate buffer (Sigma-Aldrich, Israel) for 1 h. […]

[5] = test system: triple negative breast carcinoma MDA-MB-231 (MDA); assay: MultiTox-Fluor cytotoxicity assay in MDA-MB-231 cells; assay type: cell-based, human; conditions: 24-72 h
Procedure: as §3, §4

SW620 CC cells = assay: MultiTox-Fluor cytotoxicity assay in SW620 CC cells; assay type: cell-based, human; conditions: for cell death: 2 μM; for EC50: Homo sapiens, SW-620, read-out: EC50 (cell death)
Procedure: as §3, §4

SW620 cells [6] = assay: TEM analysis of mitochondria in SW620 cells; assay type: cell-based, human
Procedure: Cells were grown in MEM or DMEM, washed twice with PBS and fixed for 5 minutes in Karnovsky fixative (2.5% glutaraldehyde, 2.5% paraformaldehyde in cacodylate buffer pH 7.4) on the tissue culture plate. Cells were then harvested, and transferred to 1.5 ml tube for further 1 h fixation at room temperature. The cells were then stored O.N at 4C° after which the samples were washed in 0.1 M cacodylate buffer and post-fixed with 1% OsO4 in 0.1 M sodium cacodylate buffer (Sigma-Aldrich, Israel) for 1 h. Samples were then dehydrated in alcohol and propylene oxide followed by embedding in Agar Mix. Thin sections (60 nm) were cut, stained with uranyl acetate and lead citrate, and observed in a FEI Tecnai transmission electron microscope.

SW620 cells [7] = assay: TUNEL assay in SW620 cells; assay type: cell-based, human; conditions: 12 h
Procedure: Samples of 1×10^6 cells were inoculated into a 6 well plate containing a cover slip, and fixed for 30 min with 4% paraformaldehyde following adhesion. The cells were then subjected to TUNEL analysis according to manufacturer's instructions (Roche, USA).

Sequence of MAPK8 (JNK1) (P45983 whole entry): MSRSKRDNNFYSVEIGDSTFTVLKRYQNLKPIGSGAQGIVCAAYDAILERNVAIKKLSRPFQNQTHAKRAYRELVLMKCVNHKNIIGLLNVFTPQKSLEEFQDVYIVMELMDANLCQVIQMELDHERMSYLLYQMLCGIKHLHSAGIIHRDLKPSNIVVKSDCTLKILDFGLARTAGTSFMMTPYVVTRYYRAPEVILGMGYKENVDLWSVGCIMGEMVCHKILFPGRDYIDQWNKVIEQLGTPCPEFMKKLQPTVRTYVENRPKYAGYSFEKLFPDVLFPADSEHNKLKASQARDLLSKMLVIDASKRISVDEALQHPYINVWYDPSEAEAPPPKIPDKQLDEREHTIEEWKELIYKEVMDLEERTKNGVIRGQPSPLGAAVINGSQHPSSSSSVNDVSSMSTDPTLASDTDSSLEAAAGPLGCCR
Sequence of CSF1R (Colony stimulating factor 1 receptor-FMS) (P07333 20-972): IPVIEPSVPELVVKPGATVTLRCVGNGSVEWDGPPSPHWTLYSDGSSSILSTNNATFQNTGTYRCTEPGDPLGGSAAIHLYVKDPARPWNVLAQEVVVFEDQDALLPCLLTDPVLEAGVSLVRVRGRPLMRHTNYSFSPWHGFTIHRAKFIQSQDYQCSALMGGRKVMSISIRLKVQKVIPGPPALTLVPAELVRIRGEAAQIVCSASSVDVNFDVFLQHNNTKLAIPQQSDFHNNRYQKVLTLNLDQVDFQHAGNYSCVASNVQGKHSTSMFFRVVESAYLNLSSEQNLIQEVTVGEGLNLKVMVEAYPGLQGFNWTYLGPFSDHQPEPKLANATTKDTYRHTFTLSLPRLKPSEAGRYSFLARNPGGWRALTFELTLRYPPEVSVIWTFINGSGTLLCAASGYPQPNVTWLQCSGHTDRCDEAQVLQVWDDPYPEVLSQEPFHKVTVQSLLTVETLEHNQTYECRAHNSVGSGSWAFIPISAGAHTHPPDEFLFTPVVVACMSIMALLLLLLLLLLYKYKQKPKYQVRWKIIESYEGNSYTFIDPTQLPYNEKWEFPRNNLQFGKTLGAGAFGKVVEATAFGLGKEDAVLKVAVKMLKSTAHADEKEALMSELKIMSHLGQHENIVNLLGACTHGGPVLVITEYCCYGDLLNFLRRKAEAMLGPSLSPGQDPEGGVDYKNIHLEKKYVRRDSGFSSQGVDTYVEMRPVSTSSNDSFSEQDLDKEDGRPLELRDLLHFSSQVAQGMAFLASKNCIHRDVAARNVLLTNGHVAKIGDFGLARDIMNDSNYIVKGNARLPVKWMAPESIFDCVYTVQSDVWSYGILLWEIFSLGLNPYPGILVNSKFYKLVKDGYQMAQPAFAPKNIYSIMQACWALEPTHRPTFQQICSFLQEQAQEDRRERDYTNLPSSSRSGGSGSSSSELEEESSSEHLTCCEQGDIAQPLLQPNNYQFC

In the case of `CC(C)c1ccc(-c2cn3nc(N4CCC(CN5CCN(C)CC5)CC4)sc3n2)cc1` [compound 0260, tartarate salt of 6-(4-isopropyl-phenyl)-2-{4-[(4-methyl-piperazin-1-yl)methyl]piperidin-1-yl}-imidazo [2,1-b][1,3,4]thiadiazole], the “kinase activity inhibition or ATP displacement” value [1] is reported as > 40%, the “kinase activity inhibition or ATP displacement” value (MAPK8 (JNK1)) is reported as > 40% and the “cell death / cytotoxic effect in normal fibroblasts” value ([2]; 24 h and 48 h, same conditions as SW620) is reported as “no death was seen; also recorded: Almost no cytotoxic effect”. The “sensitivity of normal cells lower than SW620” value ([2]; Hfb 72 h vs SW620) was 50 fold, the EC50 ([2]; Homo sapiens, Fibroblast, Hfb, 0-20 μM, 72 h) was 20 µM and the HKII level (HKII) was “down-regulation of HKII”. The AMPK phosphorylation [3] was “phosphorylated and activated”, the Akt phosphorylation [3] was “decrease in the activating phosphorylation” and the “Raptor phosphorylation on serines 792 and 722” value [3] was “inhibitory phosphorylation”. For the same compound, the mTOR phosphorylation state [3] was “not changed”, the “autophagy (LC3 immuno-staining)” value (MDA cells) was “induction of autophagy was also observed” and the “concentration efficient in inducing cell death” value [4] was ≤ 1.5 µM. The autophagy / autophagosomes (CC cells; TEM and LC3 immuno-staining) was “autophagy was induced and autophagosomes accumulated”, the “level of LC3II” value (CC cells; WB) was “relative increase” and the “concentration efficient in inducing cell death” value [5] was ≤ 1.5 µM. The cell death (SW620 CC cells; 24 h, metastatic CC (SW620), 1 gr/l glucose) was 100%, the cell death (SW620 CC cells; 72 h, high glucose concentration) was 100% and the EC50 (SW620 CC cells; SW620, 4.5 gr/1 glucose (DMEM)) was 5.1 µM. The EC50 (SW620 CC cells; SW620, 24 h, micellar formulation, 1 gr/l glucose (MEM)) was 0.4 µM, the EC50 (SW620 CC cells; SW620, 48 h, micellar formulation) was 0.3 µM and the “death at the highest dose” value (SW620 CC cells; SW620, 4.5 gr/1 glucose (DMEM)) was 50%. The “mitochondria morphology (TEM)” value (SW620 cells [6]; 16 h) was “deformation and loss of the normal elongated shape of mitochondria”, the “mitochondria morphology (TEM)” value (SW620 cells [6]; 24 h) was “the mitochondria underwent lysis” and the “mitochondria morphology (TEM)” value (SW620 cells [6]; 24 h, high glucose conditions) was “mitochondrial damage was still observed”. The “DNA integrity (TUNEL)” value (SW620 cells [7]) was “did not reveal any effect”.
